Where two headings read alike, the source gives them in different places.
Assays:
[1] = molecular target: T1, murine Syk tyrosine kinase protein (GST:Syk 6-242) (Mus musculus, UniProt P48025); assay: ADA method: displacement of the binding of scFv G4G11 with Syk (ELISA); conditions: for inhibition at 10 µM: read-out: In vit. inhib.: mean inhibition % of the binding of scFv G4G11 with Syk in the ADA method
T1 construct: made in house
Text: The term “percentage of inhibition” of the binding of an antibody or antibody fragment with Syk protein, particularly refers to the ratio […], where A consists of the intensity of a signal proportional to the quantity of an antibody or antibody fragment bound with Syk protein in the absence of a molecule according to the invention and B the intensity of the same signal in the presence of a molecule according to the invention under the same conditions. […] This test may be performed for example according to the protocol described in example 3-2) hereinafter.
The inventors developed the ADA (Antigen Displacement Assay) method to identify small molecules capable of displacing the association with scFv G4G11 with Syk. […] To understand the mode of action of C-13, the inventors firstly identified the binding site of G4G11 using the SPOT method^16. An epitope located on the N-terminal SH2 domain of Syk, comprising amino acids 65-74 and 100% preserved in mouse, rat and human sequences, was identified.
The ADA method was then applied to each of these […] molecules to measure the ability thereof to inhibit the binding of scFv G4G11 with Syk.
(§1) • 1) Chemical products and antibodies. A chemical bank of 3000 molecules (a varied subset) was acquired from ChemBridge, Inc. (San Diego, Calif.). Stocks of solutions of small molecules were prepared at a rate of 10 mM in DMSO (dimethylsulphoxide), except for C-13 (methyl 2-{5-[(3-benzyl-4-oxo-2-thioxo-1,3-thiazolidin-5-ylidene)methyl]-2-furyl}benzoate, ChemBridge ID No. 6197026) prepared in DMF (dimethylformamide). Unless specified otherwise, all the reagents were supplied by Sigma. Dinitrophenyl (DNP) hapten was acquired from Calbiochem. Sepharose GammaBind G and all the secondary antibodies were supplied by GE Health Amersham Biosciences. The anti-Syk, anti-Lyn, anti-Btk, anti-PLC-γ1, anti-PLC-γ2, anti-LAT, anti-SLP-76, anti-p38, anti-JNK, anti-Vav, anti-Akt1 and 9E10 antibodies conjugated with HRP were acquired from Santa Cruz Biotechnology. The anti-phospho-p44/42 MAP Kinase, anti-p44/42 MAP Kinase, anti-phospho-p38, anti-phospho-JNK, anti-phospho-Akt1 antibodies were acquired from Cell Signaling. The anti-phospho-LAT and anti-phospho-PLC-γ1 antibodies were supplied by Biosource and the anti-phospho-SLP-76 antibodies by BD Pharmingen. The 4G10 anti-phosphotyrosine monoclonal antibody was acquired from Upstate Biotechnology. • 2) ADA method: ELISA type high-speed molecule screening test, based on antibody displacement (WO 2005106481). The recombinant fusion protein GST:Syk 6-242^8 comprising the residues 6 to 242 of murine Syk tyrosine kinase protein illustrated in FIG. 8B (SEQ ID No. 4) was immobilised on an ELISA plate at a final concentration of 10 μg ml^−1. For the screening of the chemical molecule bank, the small molecules, diluted in PBS at a final concentration of 10 μM were added to the wells for one hour at ambient temperature, before adding the fragment scFv G4G11 at a final concentration of 100 nM for an additional hour. The binding of G4G11 with Syk was assessed by adding the 9E10 monoclonal antibody conjugated with HRP detecting the amino acid sequence EQKLISEEDLN of human c-myc protein located at the C-terminal end of the scFv fragment. To generate Syk mutants, targeted mutagenesis was used on GST:Syk 6-242 protein and the binding of G4G11 with the mutants was assessed in the presence of 5 μM of C-13. • 3) Cells, culture conditions and functional tests. Anti-DNP 2682-I mouse monoclonal antibody was used as the culture supernatant of hybridomas containing 1 μg/ml of IgE. Femoral bone marrow cells were sampled and cultured in Opti-MEM medium (Gibco) supplemented with 10% foetal calf serum and 4% X63 transfectant supernatant secreting murine IL-3. RBL-2H3 (ATCC) leukaemic rat basophil cells were maintained in a single-layer culture in RPMI 1640 medium supplemented with 10% foetal calf serum (Gibco). […]

RBL-2H3 cells = assay: cells; assay type: cell-based, rat; conditions: for IC50: Rattus norvegicus
Method: These 87 molecules were also tested in vitro to assess the ability thereof to inhibit RBL-2H3 cell degranulation (see table 1).
as §1, with “(Gibco). Measurements of β-hexosaminidase released by the RBL-2H3 cells were performed as described previously^7, except that, after 12-16 hours of incubation with anti-DNP IgE (0.5 μg/ml), the cells were incubated for 90 min at 37° C. in RPMI medium supplemented with the specified concentrations of C-13 or DMF (0.25%). The cells were stimulated for 45 min with DNP-BSA (50 ng ml^−1) or ionomycin (1.5 μM). The BMMC cells were incubated for one hour at 37° C. with anti-DNP IgE (100 ng/ml). They were then incubated with C-13 (3 μM) or DMF (0.3%) for 3 hours at 37° C., and stimulated with varied concentrations of DNP-BSA. The level of β-hexosaminidase released was measured 10 min later and the TNF-α titration was performed by means of a cytotoxicity test on L929 cells as described previously^10, 3 hours after stimulation. The results illustrated in FIG. 3 are representative of three independent experiments. • 4) Immunoprecipitations, in vitro kinase assays and immunodetection.” for “(Gibco).”

[2] = small molecules at 10 μM, scFv G4G11 100 nM
[3] = RBL-2H3 cells, read-out: Degran. IC50: concentration inhibiting mast cell degranulation by 50%

Structure (SMILES) | inhibition at 10 µM [1, 2] [%] | IC50 (RBL-2H3 cells; [3]) [µg/mL] | other results
CC(C)c1ccc(C2C(C(=O)c3ccccc3)=C(O)C(=O)N2CCN2CCOCC2)cc1 (centres unmarked) [Molecule 26] | 56.5 | > 10 | –
COc1ccc(C2C(C(=O)c3ccc(Cl)cc3)=C(O)C(=O)N2CCN2CCOCC2)cc1OC (centres unmarked) [Molecule 27, 4-(4-chlorobenzoyl)-5-(3,4-dimethoxyphenyl)-3-hydroxy-1-[2-(4-morpholinyl)ethyl]-1,5-dihydro-2H-pyrrol-2-one] | 55 | > 10 | –
CCN(CC)CCN1C(=O)C(O)=C(C(=O)c2ccc(C)cc2)C1c1cc(OC)ccc1OC (centres unmarked) [Molecule 28, 1-[2-(diethylamino)ethyl]-5-(2,5-dimethoxyphenyl)-3-hydroxy-4-(4-methylbenzoyl)-1,5-dihydro-2H-pyrrol-2-one] | 54 | > 10 | –
O=C(CCCN1C(=O)c2ccccc2C1=O)Nc1sc2c(c1C(=O)NCC1CCCO1)CCC2 (centres unmarked) [Molecule 30] | 51 | > 10 | –
COc1ccc(C2C(C(=O)c3ccc(F)cc3)=C(O)C(=O)N2CCN2CCOCC2)cc1OC (centres unmarked) [Molecule 31, 5-(3,4-dimethoxyphenyl)-4-(4-fluorobenzoyl)-3-hydroxy-1-(2-(4-morpholinyl)ethyl]-1,5-dihydro-2H-pyrrol-2-one] | 50 | > 10 | –
CN(C)S(=O)(=O)c1ccc(C(=O)C2=C(O)C(=O)N(CCN3CCOCC3)C2c2ccccc2)cc1 (centres unmarked) [Molecule 32, 4-({4-hydroxy-1-[2-(4-morpholinyl)ethyl]-5-oxo-2-phenyl-2,5-dihydro-1H-pyrrol-3-yl}carbonyl)-N,N-dimethylbenzenesulphonamide] | 50 | > 10 | –
COc1ccc(C2C(C(=O)c3ccc(F)cc3)=C(O)C(=O)N2CCN2CCOCC2)c(OC)c1 (centres unmarked) [Molecule 33] | 50 | > 10 | –
COc1ccc(C2C(C(=O)c3ccc(Cl)cc3)=C(O)C(=O)N2CCN2CCOCC2)cc1OC (centres unmarked) [Molecule 36, 4-(4-chlorobenzoyl)-5-(3,4-dimethoxyphenyl)-3-hydroxy-1-[2-(4-morpholinyl)ethyl]-1,5-dihydro-2H-pyrrol-2-one] | – | – | In vit. inhib.: mean inhibition % of the binding of scFv G4G11 with Syk in the ADA method [1, 2]: 50%; Degran. IC50: concentration inhibiting mast cell degranulation by 50% (RBL-2H3 cells; RBL-2H3 cells): >10 µg/mL
Cc1cc(C)cc(N(CC(=O)N2CCN(Cc3ccccc3)CC2)S(=O)(=O)c2ccccc2)c1 [Molecule 40, N-[2-(4-benzyl-1-piperazinyl)-2-oxoethyl]-N-(3,5-dimethylphenyl)benzenesulphonamide] | – | – | inhibition at 10 µM [1]: 49.5%; IC50 (RBL-2H3 cells; RBL-2H3, read-out: Degran. IC50: concentration inhibiting mast cell degranulation by 50%): > 10 µg/mL

Further lines, with some results ahead:

inhibition at 10 µM [1, 2] [%] | IC50 (RBL-2H3 cells; [3]) [µg/mL] | Structure (SMILES) | other results
50 | > 10 | COc1ccc(C2C(C(=O)c3ccc(C)cc3)=C(O)C(=O)N2CCN2CCOCC2)c(OC)c1 (centres unmarked) [Molecule 34] | –
50 | > 10 | COc1ccc(C2C(C(=O)c3ccco3)=C(O)C(=O)N2CCN2CCOCC2)cc1OC (centres unmarked) [Molecule 35, 5-(3,4-dimethoxyphenyl)-4-(2-furoyl)-3-hydroxy-1-[2-(4-morpholinyl)ethyl]-1,5-dihydro-2H-pyrrol-2-one] | –
50 | > 10 | CCOC(=O)c1sc(N2C(=O)C(O)=C(C(=O)c3ccccc3)C2c2ccc(OC)cc2)nc1C (centres unmarked) [Molecule 37, ethyl 2-[3-benzoyl-4-hydroxy-2-(4-methoxyphenyl)-5-oxo-2,5-dihydro-1H-pyrrol-1-yl]-4-methyl-1,3-thiazole-5-carboxylate] | –
50 | > 10 | COc1ccc(C2C(C(=O)c3cccs3)=C(O)C(=O)N2CCN2CCOCC2)cc1OC (centres unmarked) [Molecule 38, 5-(3,4-dimethoxyphenyl)-3-hydroxy-1-[2-(4-morpholinyl)ethyl]-4-(2-thienylcarbonyl)-1,5-dihydro-2H-pyrrol-2-one] | –
50 | > 10 | COc1ccc(C2C(C(=O)c3ccc(Cl)cc3)=C(O)C(=O)N2CCN2CCOCC2)cc1 (centres unmarked) [Molecule 39, 4-(4-chlorobenzoyl)-3-hydroxy-5-(4-methoxyphenyl)-1-[2-(4-morpholinyl)ethyl]-1,5-dihydro-2H-pyrrol-2-one] | –
49.5 | > 10 | Cc1ccc(C(=O)C(C)OC(=O)c2ccc3c(c2)C(=O)C(c2ccc(C)c(Cl)c2)C3=O)cc1 (centres unmarked) [Molecule 41] | –
49 | > 10 | COc1ccc(C)cc1NC(=O)CN(c1ccc(C)cc1)S(=O)(=O)c1ccc(OC)c(OC)c1 [Molecule 42] | –
